The subject of the test is P388/ADR leukemia. In words: NCI tumour cell line growth inhibition, 48 h.

Each structure is given as a SMILES string.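 Values below derive from 48-hour exposures of cells grown in 96-well plates, with endpoints linearly interpolated between the two concentrations bracketing the appropriate inhibition level. Definition used: TGI = concentration required for complete inhibition of growth.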

In the case of `O=c1n(CC2CO2)c(=O)n(CC2CO2)c(=O)n1CC1CO1` (stereo unspecified), the TGI came to 275 µM.

Source of the values: PubChem BioAssay (NCI).
